Assay results: patent publication US11590185B2, “Antioxidant composition comprising Sargassum serratifolium extract or fraction thereof as active ingredient” (PUKYONG NATIONAL UNIVERSITY INDUSTRY-UNIVERSITY COOPERATION …, priority 2015, dated 2023)
Values belong to the compound of their own block, whether it stands above or below them.

Columns and labels:
[1] = Hydroxyl radical scavenging (deoxyribose test); type: biochemical; details: 37° C. 1 hour, 532 nm
Procedure: Hydroxyl radicals (—OH) are the most reactive radicals among oxygen radicals, which occur during aerobic metabolism in the human body. These radicals damage peripheral cells to create collateral living body molecules. A deoxyribose test was performed so as to measure the ability to scavenge hydroxyl radicals. Hydroxyl radicals attack deoxyribose to create small fragments. Some of which are pink when added with TBA (thiobarbituric acid) under an acidic pH environment, so the degree of damage by hydroxyl radicals is measured by absorbance at 532 nm.
Experimental methods described in Chandini, Ganesan, and Bhaskar (Chandini, S. K., Ganesan, p., and Bhaskar, N. (2008) In vitro antioxidant activities of three selected brown seaweeds of India. Food Chemistry, 107, 707-713) were modified to be used. […] 1 ml the sample to be measured was mixed with the working solution, and 0.1 ml ascorbic acid (1 mM) is added to form Fe2+−EDTA mixture which is an […] of ferric chloride (FeCl3) and ethylenediamine tetraacetic acid (EDTA). […] The absorbance thereof was measured. […]
Experimental methods described in Chandini, Ganesan, and Bhaskar (Chandini, S. K., Ganesan, p., and Bhaskar, N. (2008) In vitro antioxidant activities of three selected brown seaweeds of India. Food Chemistry, 107, 707-713) were modified to be used. […] The absorbance thereof was measured. […]

[2] = DPPH radical scavenging activity; type: biochemical; details: DPPH 200 μM, 30 minutes, 517 nm
Procedure: For the measurement, 100 μl DPPH having a concentration of 200 μM and 100 μl the sample were mixed in a 96-well plate, and they reacted at room temperature for about 30 minutes. Then, the absorbance thereof was measured at 517 nm using a microplate reader. BHT was used as a positive control. The concentration was compared at the same as that of the sample.
DPPH radical scavenging activity was calculated by the method as described below. Radical scavenging activity (%)=(ADPPH−Asample)/ADPPH×100
For the measurement, 100 μl DPPH having a concentration of 200 μM and 100 μl the sample were mixed in a 96-well plate, and they reacted at room temperature for about 30 minutes. Then, the absorbance thereof was measured at 517 nm using a microplate reader. BHT was used as a positive control. The concentration thereof was compared to the same as that of the sample.
DPPH radical scavenging activity was calculated by the method as described below.

[3] = ABTs assay (ABTs cation scavenging); type: biochemical; details: 6 minutes, 732 nm
Procedure: The ABTs assay is similar to the DPPH assay but differs in that antioxidative activity is measured by generating free radicals through chemical reactions. ABTs are reacted with potassium persulfate to generate ABTs […] radicals, which react with H-donors such as phenolic compounds to be converted to colorless ABTs. Accordingly, the degree of antioxidative activity may be determined by measuring the amount of ABTs consumed by reacting with a sample containing a phenolic compound.
ABTs antioxidative activity was measured by partially modified Van den Berg (1999) and others using the discoloration of ABTs radical-specific green color by antioxidants.
(§1) Potassium persulfate was added to 7 mM ABTs solution at a final concentration of 2.4 mM. They reacted in the dark for 12 hours to 16 hours at R/T so as to produce ABTs cations. The resulting ABTs cation was diluted to be used, having an absorbance value of 0.7±0.02. […] The absorbance thereof was measured at 732 nm. The radical scavenging activity was calculated from the measured values as follows. […]
as §1, with “mM ABTS” for “mM ABTs”, “mM. […]” for “mM. They reacted in the dark for 12 hours to 16 hours at R/T so as to produce ABTs cations.”

[4] = tested on: reactive oxygen species in 661W photoreceptor cells; test: Reactive oxygen species in atRAL-treated 661W cells (DCFH-DA, flow cytometry); type: cell-based, mouse; details: 30 minutes
Procedure: For reference, 2′,7′-dichlorodihydrofluorescein diacetate (DCFH-DA) converts to DCF, which expresses fluorescence in response to oxidative stress in cells. Therefore, the expression of DCF in cells is used as an indicator of the degree of oxidative stress.
(§2) In order to examine the antioxidative effect of the Sargassum serratifolium ethanol extract and the compounds separated therefrom of the present invention, atRAL (1.8 μM) and Sargassum serratifolium ethanol extract (0.5 μg/mL), sargachromenol (0.5 μM), sargahydroquinoic acid (0.5 μM), or sargaquinoic acid (1.0 μM) were added to medium mixed with DCFH-DA (20 μM), and the photoreceptor cells were treated with them and cultured for 30 minutes. Then, the cells were washed with PBS, and the cells were recovered. The cells expressing the fluorescence were measured using flow cytometry.
as §2, with “acid (0.5 μM) or sargaquinoic” for “acid (0.5 μM), or sargaquinoic”

[5] = tested on: malondialdehyde (MDA) production in 661W photoreceptor cells; test: Malondialdehyde (MDA) denatured protein in atRAL-treated 661W cells (MDA immunoblot); type: cell-based, mouse; details: 2 hours; for expression level of MDA-denatured protein compared with group treated with atRAL only: sargachromenol 0.5 μM, sargahydroquinoic acid 0.5 μM or sargaquinoic acid 1.0 μM, with atRAL 1.8 μM
Procedure: For reference, the malondialdehyde (MDA) is the result of lipid peroxidation by excessive oxidative stress in cells, and thus the amount of MDA in cells is a factor to measure the degree of oxidative stress.
(§3) In detail, samples of each of Sargassum serratifolium ethanol extract and the compounds separated therefrom were mixed with a specific amount of atRAL (1.8 μM) and Sargassum serratifolium ethanol extract (0.5 μg/mL), sargachromenol (0.5 μM), sargahydroquinoic acid (0.5 μM), or sargaquinoic acid (1.0 μM). The photoreceptor cells were treated with mixtures thereof. Then, they were cultured for 2 hours. The cells were then washed with PBS and the intracellular proteins were recovered. The number of proteins denatured by the lipid peroxides in cells was analyzed by protein immunoassay using MDA immunoblot kit (Cell biolabs).
as §3, with “acid (0.5 μM) or sargaquinoic” for “acid (0.5 μM), or sargaquinoic”, “treated with mixtures. Then, they” for “treated with mixtures thereof. Then, they”

661W photoreceptor cells [6] = test: Cell viability of 661W cells under atRAL oxidative stress (MTS); type: cell-based, mouse; details: 24 hours; for viability at 0.5 µM: Mus musculus, 661W, 0.5 μM compound with atRAL 1.8 μM
Procedure: In detail, 661W photoreceptor cells were cultured in 96-wells at a concentration of 3×10^3 cells/well and treated with atRAL having a concentration of 1.8 μM (Sigma Aldrich, St. Louis, Mo., USA) for 24 hours. Then, the medium was replaced with medium containing MTS reagent, and they were cultured for 1 hour. The absorbance thereof was measured at 490 nm, and the results were compared to determine cell viability. The cell viability thereof was measured by Celltiter^96 Aqueous One solution assay kit (Promega).

661W photoreceptor cells [7] = test: Cytotoxicity on 661W photoreceptor cells (MTS); type: cell-based, mouse; details: 661W cells, separated compounds
Procedure: (§4) 661W photoreceptor cells were cultured in 96-wells at a concentration of 3×10^3 cells/well. Then, they were treated with 1.0 μg/ml Sargassum serratifolium ethanol extract or compounds separated therefrom (sargahydroquinoic acid (SHQ), sargachromenol (SCM), and sargaquinoic acid (SQA)) at a concentration of 1.0 μM and cultured for 24 hours. Then, the medium was replaced with medium containing MTS reagent. Then, they were cultured for 1 hour. Cell viability was measured by measuring the absorbance at 490 nm and comparing the results. The cell viability thereof was analyzed by Celltiter^96 Aqueous One solution assay kit (Promega).
as §4, with “viability” for “viability thereof”

[8] = compound 0.5 μM and atRAL 1.8 μM

- OH radical (IC50, μg/ml) [1]: 1.675 ± 0.21 µg/mL
- DPPH (IC50, μg/ml) [2]: 11.18 ± 0.15 µg/mL
- ABTs (IC50, μg/ml) [3]: 7.77 ± 0.74 µg/mL
SMILES: Cc1cc(C(C)(C)C)c(O)c(C(C)(C)C)c1 [BHT]

SMILES: CC(C)=CCC/C(=C/CC/C(C)=C/CCC1(C)C=Cc2cc(O)cc(C)c2O1)C(=O)O (stereo not drawn) [sargachromenol]
- fluorescence expression level (DCF) reduced compared to group treated with atRAL only [4, 8]: 76%
- fluorescence expression level (DCF) reduced compared to group treated with atRAL only ([4]; compound 0.5 μM and atRAL 1.8 μM, listed as SCM): ~77%
- expression level of MDA-denatured protein compared with group treated with atRAL only [5]: effectively reduced
- viability at 0.5 µM (661W photoreceptor cells [6]): > 90%

SMILES: CC1=C(/C=C/C(C)=C/C=C/C(C)=C/C=O)C(C)(C)CCC1 [atRAL, all-trans-retinal, reference compound]
- fluorescence expression level (DCF) higher than that of the control group ([4]; atRAL 1.8 μM only): about 80%
- expression level of protein denatured by MDA compared with the control ([5]; atRAL 1.8 μM only): increased
- cell viability reduced in the only atRAL-treated group (661W photoreceptor cells [6]; atRAL 1.8 μM alone): about 55%

SMILES: CC(C)=CCC/C(=C/CC/C(C)=C/CC/C(C)=C/CC1=CC(=O)C=C(C)C1=O)C(=O)O [sargaquinoic acid]
- fluorescence expression level (DCF) reduced compared to group treated with atRAL only ([4]; compound 1.0 μM and atRAL 1.8 μM): 73%
- concentration up to which there was no cytotoxicity (661W photoreceptor cells [7]): ≤ 1000 nM
- expression level of MDA-denatured protein compared with group treated with atRAL only [5]: effectively reduced
- viability at 0.5 µM (661W photoreceptor cells [6]): > 90%

SMILES: CC(C)=CCC/C(=C/CC/C(C)=C/CC/C(C)=C/Cc1cc(O)cc(C)c1O)C(=O)O [sargahydroquinoic acid]
- fluorescence expression level (DCF) reduced compared to group treated with atRAL only [4, 8]: 77%
- fluorescence expression level (DCF) reduced compared to group treated with atRAL only ([4]; compound 0.5 μM and atRAL 1.8 μM, listed as SHQ): about 76%
- expression level of MDA-denatured protein compared with group treated with atRAL only [5]: effectively reduced
- viability at 0.5 µM (661W photoreceptor cells [6]): > 90%
